Reference: ChEMBL document CHEMBL1201862, “PubChem BioAssay data set” (2004)
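The compound was tested at five concentrations on cells cultured in 96-well plates, with a 48-hour exposure period. Here, GI50 denotes the concentration required for 50% inhibition of growth.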 The source made the active and inactive calls. Rule as the data show it: active = GI50 up to about 1.1 µM and inactive = higher.

Legend:
Experiment in all cases: NCI tumour cell line growth inhibition, 48 h
ACHN = test system: ACHN
DMS-114 = test system: DMS-114
DMS-273 = test system: DMS-273
HCT-116 = test system: HCT-116
HCT-15 = test system: HCT-15
HOP-62 = test system: HOP-62
HT-29 = test system: HT-29
K562 = test system: K562
KM12 = test system: KM12
M19-MEL = test system: M19-MEL
OVCAR-3 = test system: OVCAR-3
OVCAR-4 = test system: OVCAR-4
OVCAR-5 = test system: OVCAR-5
SN12C = test system: SN12C
SNB-78 = test system: SNB-78
SR = test system: SR
SW-620 = test system: SW-620
U-251 = test system: U-251
UACC-62 = test system: UACC-62
UO-31 = test system: UO-31

Measured: GI50

CCn1cnnc1-c1nsc2ccccc12
inactive: ACHN > 100 µM | DMS-114 > 100 µM | DMS-273 > 100 µM | HCT-116 > 100 µM | HOP-62 > 100 µM | HT-29 > 100 µM | K562 68.1 µM | KM12 > 100 µM | M19-MEL > 100 µM | OVCAR-3 65.9 µM | OVCAR-4 > 100 µM | OVCAR-5 7.52 µM | SN12C > 100 µM | SNB-78 > 100 µM | SR > 100 µM | SW-620 > 100 µM | U-251 > 100 µM | UACC-62 > 100 µM | UO-31 > 100 µM
> 100 µM: HCT-15
